According to publication PMC7985170, “Marine Peptide-N6NH2 and Its Derivative-GUON6NH2 Have Potent Antimicrobial Activity Against Intracellular Edwardsiella tarda in vitro and in vivo” (Frontiers in Microbiology, 2021):

Key:
E. tarda [1] = experiment: Post-antibiotic effect (PAE); format: cell-based, Edwardsiella tarda; settings: 2 h exposure, E. tarda, 28°C, n = 3
Experimental: E. tarda cells were incubated with peptides (1×, 2×, or 4× MIC) for 2 h, diluted, and cultured at 28°C and 200 rpm. An aliquot of samples (50 μL) were taken for CFU counts at different time intervals until bacterial cultures became turbid. Bacteria treated with the N6NH2, GUON6NH2 or vancomycin were used as the positive control; bacteria without treatment were used as the blank control. The PAE was calculated using the following formula: PAE = T–C, where T is the time for the CFU counts to increase by 10-fold above the count observed immediately after drug removal, and C is the corresponding time for the untreated control ([Oh et al., 2019]).

E. tarda [2] = experiment: Time-killing curve; format: cell-based, Edwardsiella tarda; settings: 2× MIC
Experimental: Time-killing curve of peptides was performed according to the previous method ([Flamm et al., 2019]). E. tarda was cultured to logarithmic phase, diluted in Mueller Hinton broth (MHB) (1 × 10^5 CFU/mL) containing 1×, 2×, or 4× MIC of peptides, and cultured at 28°C (200 rpm). PBS was added as a control. Bacterial samples (100 μL) were removed at different time intervals (0, 0.5, 1, 1.5, 2, 4, 6, 8, 10, 12, 22, and 24 h) and were counted on MH solid plates. The time-killing curves of peptides were plotted. Bacterial cells treated with 2× MIC norfloxacin and without treatment were used as the positive and blank controls, respectively.

E. tarda [3] = experiment: Mouse peritonitis model, bacterial counts in peritoneal fluid; format: in vivo; settings: 1 μmol/kg i.p.
Experimental: The mice were intraperitoneally infected with E. tarda (1 × 10^9 CFU/mL, 0.5 mL) and then injected with N6NH2 and GUON6NH2 (1 μmol/kg) or PBS (the blank control) in the same way at 1 h after infection. The mice were then killed at 24 h after treatment, and peritoneal fluids were obtained by washing with 5 mL of ice-cold PBS. The total number of E. tarda in the fluids was determined before any further procedures. For intracellular bacteria quantification, the other fraction was centrifuged for 5 min at 4°C (1,000 rpm). The cells were collected, treated with 1,000 μg/mL gentamicin for 30 min at 37°C to kill extracellular bacteria, and washed with ice-cold PBS twice to remove extracellular gentamicin. Subsequently, the cells were lysed and the bacteria were counted as described above for the in vitro experiment ([Kim et al., 2011]).

E. tarda [4] = experiment: SEM and TEM morphology; format: cell-based, Edwardsiella tarda; settings: 4× MIC, 2 h
Experimental: To further characterize the bactericidal effects of the peptides, scanning electron microscopy (SEM) and transmission electron microscopy (TEM) were used to visualize morphological changes ([Yang et al., 2019]). E. tarda was cultured to logarithmic growth stage (10^8 CFU/mL) and diluted with 0.01 M PBS (pH 7.4) to OD600 nm = 1. E. tarda cells were treated with 4× MIC peptides at 37°C for 2 h and the untreated cells were used as the control. Briefly, after centrifugation, the bacterial cells were washed three times with 0.1 M PBS (pH 7.2) and fixed overnight at 4°C with 2.5% glutaraldehyde. After washing again, the cells were fixed with 1% osmium tetroxide (OsO4) for 2 h and dehydrated in a graded ethanol series (50%–70%–85%–95% × 2–100%, × 2) for 15 min, respectively. The samples were then dried by CO2, sputtered with gold-palladium, and observed on a QUANTA200 SEM (FEI, Philips, Netherlands).
E. tarda cells were treated peptides before fixation as described above. The bacteria were washed with 0.01 M PBS (pH 7.4) for five times, 7 min each time, and fixed with 1% osmium acid buffer (4°C) for 1 h. After dehydration with a graded acetone series (30%–50%–70%–85%–95%–100% × 3), the cells were immersed in mixtures of acetone and resin (3:1, 1:1 and 1:3, respectively) for 40 min and in a pure epoxy resin overnight. The samples were then embedded in embedding medium and polymerized at 45°C for 3 h and at 65°C for 24 h, respectively. The sections were prepared using an ultramicrotome, stained with 1% uranyl acetate, and visualized by a JEM1400 (JEDL, Tokyo, Japan).

LPS = LPS binding, BODIPY-TR-cadaverine (BC) probe displacement; settings: 0.5 μM LPS, 5 μM BC, Tris buffer pH 7.4; peptides 0.049 to 50 μM
Experimental: The BODIPY’-TR-cadaverine (BC) probe was used to determine the ability of peptides to bind to LPS ([Wang et al., 2020]). 0.5 μM LPS was incubated with 5 μM BC in […] Tris buffer (pH 7.4) for 4 h at 37°C. Subsequently, the peptides were added into the mixture and the final concentrations of peptides ranged from 0.049 to 50 μM. Ampicillin was used as the negative control. Changes in fluorescence were measured by a fluorescence spectrophotometry at room temperature (excitation/emission, 580/620 nm).

E. tarda [5] = experiment: Mouse peritonitis model, survival; format: in vivo; settings: 1 μmoL/kg i.p. at 1 h postinfection, ICR mice, 5 days
Experimental: To establish a peritonitis mouse model, six-week-old female ICR mice (five mice/group) were intraperitoneally injected with E. tarda (1 × 10^9 CFU/mL, 0.5 mL). The infected mice were followed by the intraperitoneal injection of N6NH2, GUON6NH2 or norfloxacin (1 μmol/kg of body weight, 0.2 mL) at 1 h postinfection, respectively. Mice injected with only bacteria or PBS were used as negative or blank controls. The survival of mice was recorded daily for 5 days.

CCn1cc(C(=O)O)c(=O)c2cc(F)c(N3CCNCC3)cc21 [norfloxacin, reference compound]
PAE (E. tarda [1]; 1× MIC): 2.65 h
PAE (E. tarda [1]; 2× MIC): 3.48 h
PAE (E. tarda [1]; 4× MIC): 3.12 h
time of bacterial re-growth (E. tarda [2]): 12 h
decrease of total numbers of bacteria (E. tarda [3]; peritoneal fluid 24 h after treatment): 0.49 Log10 CFU
reduction of intracellular bacteria (E. tarda [3]; peritoneal fluid cells 24 h after treatment): 0.35 Log10 CFU
morphological changes by SEM (E. tarda [4]): no significant change in the bacterial cell structures
ultrastructure changes by TEM (E. tarda [4]): no significant change in bacterial cells
ability to bind to LPS (BC probe displacement) (LPS): did not replace BC probe to bind to LPS
survival rate of mice (E. tarda [5]): 40%
